“Also recorded” adds a separate entry of the source. In the oligonucleotide strings, read from the 5' end, every base follows the letter of its sugar. An asterisk marks phosphorothioate; unmarked linkages are phosphodiester. Other units and linkages are bracketed, terminal groups are in braces. A string of capitals states the bases alone. m = 2'-O-methyl
Legend:
Format in all cases: cell-based, human
[1] = test system: pEGFR; test: pEGFR Western blot in LNCaP cells after EGF exposure; conditions: 250 nM SSO, 72 hrs post transfection, 10 ng/ml EGF for 10 minutes, normalized to GAPDH and vehicle control
Protocol: (§1) LNCaP cells were treated with transfection reagent alone or with 250 nM EGRF exon 16 or 18 SSOs. 72 hrs post transfection, cells were exposed to 10 ng/ml EGF for 10 minutes before lysing and haresting total protein. pEGFR and GAPDH were visualized via Western blot and imaged and quantified on a Licor Odyssey Fc. pEGFR quantities are normalized to GAPDH and then to vehicle control.
as §1, with “EGFR” for “EGRF”, “hours” for “hrs”, “ng/mL” for “ng/ml”, “harvesting” for “haresting”, “via” for “via Western blot and imaged and quantified on a Licor”

[2] = test system: EGFR pre-mRNA; test: qPCR quantitation of EGFR exon 16 / exon 18 skipped products; conditions: increasing concentrations of SSO
From the text: qPCR primers correspond to those used in FIG. 10 and endpoint PCR primers correspond to those used in FIG. 8.

[3] = test system: EGFR pre-mRNA; test: RT-PCR (endpoint, gel) of EGFR exon 16 / exon 18 skipping in LNCaP cells; conditions: increasing concentrations of SSO vs transfection reagent alone, RNA 72 hrs after transfection
Protocol: (§2) LNCaP cells were treated with transfection reagent alone or with increasing concentrations of exon 16 (left) or exon 18 (right) SSO. RNA was harvested 72 hrs after transfection. Targets were visualized by RT-PCR using primers located in the exons flanking the target exon, as depicted above the gel images. Products were confirmed by sequencing.
as §2, with “(SSO #1, left in FIG. 8)” for “(left)”, “(SSO #2, right in FIG. 8).” for “(right) SSO.”, “hours” for “hrs”, “images in FIG. 8.” for “images.”, “sequencing. The primers used were: […]” for “sequencing.”

[4] = test system: LN95 prostate cancer cells; test: Proliferation of LN95 prostate cancer cells
[5] = test system: AR-V7 RNA; test: AR-V7 RNA by QRT-PCR in prostate cancer cells transfected with SSO; conditions: RNA 72 hours after transfection, normalized to TBP
Protocol: (§3) LN95, VCaP, 22Rv1 and MDA PCa 2b cells were treated with control scrambled SSO or with increasing concentrations of AR-V7 SSO, as indicated. RNA was harvested 72 hours after transfection for cDNA production and QRT-PCR analysis. Ct values were normalized to TBP, TATA-binding protein, in each sample and used to generate relative expression values.
as §3, with “MDA” for “LN95, VCaP, 22Rv1 and MDA”, “transfection reagent alone” for “control scrambled SSO”, “AR45” for “AR-V7”

[6] = test system: MDA PCa 2b prostate cancer cells; test: Colony forming ability of MDA PCa 2b prostate cancer cells; conditions: MDA PCa 2b cells
[7] = test system: AR-V7 protein; test: AR-V7 protein in LN95 prostate cancer cells transfected with SSO; conditions: increasing concentrations of SSO
[8] = test system: AR signaling; test: AR signaling: QRT-PCR of known AR induced and AR repressed targets in MDA PCa 2b cells; conditions: 400 nM SSO vs transfection reagent alone, RNA 72 hours after transfection
Protocol: MDA Pca 2b cells were treated with transfection reagent alone or with 400 nM AR45 SSO. RNA was harvested 72 hours after transfection for cDNA production and QRT-PCR analysis (Light green=known AR induced targets, dark green=known AR repressed targets).

[9] = test system: wild type AR; test: Wild type (full-length) AR RNA by QRT-PCR in MDA PCa 2b cells transfected with SSO; conditions: increasing concentrations of SSO vs transfection reagent alone, RNA 72 hours after transfection, normalized to TBP
Protocol: as §3, with “MDA” for “LN95, VCaP, 22Rv1 and MDA”, “transfection reagent alone” for “control scrambled SSO”, “AR45” for “AR-V7”

[10] = test system: AR45; test: AR45 RNA by QRT-PCR in MDA PCa 2b cells transfected with SSO; conditions: increasing concentrations of SSO vs transfection reagent alone, RNA 72 hours after transfection, normalized to TBP
Protocol: as §3, with “MDA” for “LN95, VCaP, 22Rv1 and MDA”, “transfection reagent alone” for “control scrambled SSO”, “AR45” for “AR-V7”

## mC*mC*mA*mG*mG*mG*mA*mC*mC*mU*mU*mA*mC*mC*mU*mU*mA*mU [EGFR exon 18 SSO]
[1]
  pEGFR protein expression: block pEGFR protein expression
[1]; listed as EGRF exon 18 SSO
  pEGFR protein expression: inhibition of pEGFR expression
[2]
  production of dominant-negative EGFR variants (quantitated, qPCR of skipped product): drive production of dominant-negative EGFR variants in a dose-dependent manner
[3]
  production of dominant-negative EGFR variants (exon skipping, RT-PCR gel): drive production of dominant-negative EGFR variants in a dose-dependent manner

## mG*mC*mC*mA*mA*mC*mC*mC*mG*mG*mA*mA*mU*mU*mU*mU*mU*mC [AR-V7 SSO]
[4]
  proliferation: inhibiting proliferation
[4]; in the presence of enzalutmide
  proliferation in the presence of enzalutamide: inhibiting proliferation
[5]; 22Rv1 cells, vs control scrambled SSO
  AR-V7 RNA relative expression: inhibiting AR-V7 RNA; also recorded: Dose-dependent inhibition of AR-V7
[5]; LN95 cells, increasing concentrations of SSO vs control scrambled SSO
  AR-V7 RNA relative expression: inhibiting AR-V7 RNA (left) and protein (right) in a dose-dependent manner; also recorded: Dose-dependent inhibition of AR-V7
[5]; MDA PCa 2b cells, vs control scrambled SSO
  AR-V7 RNA relative expression: inhibiting AR-V7 RNA; also recorded: Dose-dependent inhibition of AR-V7
[5]; VCaP cells, vs control scrambled SSO
  AR-V7 RNA relative expression: inhibiting AR-V7 RNA; also recorded: Dose-dependent inhibition of AR-V7
[6]
  colony forming ability: inhibiting colony forming ability
[7]
  AR-V7 protein: inhibiting AR-V7 RNA (left) and protein (right) in a dose-dependent manner

## mG*mC*mU*mG*mU*mG*mA*mA*mC*mA*mC*mU*mU*mA*mC*mC*mC*mA [EGFR exon 16 SSO]
[1]
  pEGFR protein expression: block pEGFR protein expression
[1]; listed as EGRF exon 16 SSO
  pEGFR protein expression: inhibition of pEGFR expression
[2]
  production of dominant-negative EGFR variants (quantitated, qPCR of skipped product): drive production of dominant-negative EGFR variants in a dose-dependent manner
[3]
  production of dominant-negative EGFR variants (exon skipping, RT-PCR gel): drive production of dominant-negative EGFR variants in a dose-dependent manner

## mG*mG*mA*mA*mA*mA*mA*mC*mU*mU*mA*mC*mC*mG*mC*mA*mU*mG [AR45 SSO]
[5]; MDA PCa 2b cells, increasing concentrations of SSO vs transfection reagent alone
  expression of AR-V7 RNA: decreasing wild type AR and AR-V7; also recorded: decreasing expression of full-length AR and the constitutively active AR variant, AR-V7
[8]
  AR signaling (RNAs of AR induced and AR repressed targets): modulating AR signaling; also recorded: Modulation of AR signaling
[9]
  expression of wild type (full-length) AR RNA: decreasing wild type AR and AR-V7; also recorded: decreasing expression of full-length AR
[10]
  production of AR45 (RNA relative expression): drives production of the dominant-negative AR variant, AR45

From patent publication US12071626B2, “Splice-switching oligonucleotides and methods of use” (priority 2015, dated 2024)
